Entries after “also recorded” stand apart in the source; their conditions may differ.
Columns and labels:
CAIX = biological target: CAIX; set-up: method as in PMID 25698334; conditions: reported value; cited from earlier work
[1] = system: CAIX-expressing SK-RC-52 cells; experiment: Fluorescence microscopic analyses of labeled cells; assay type: cell-based; conditions: 100 nM of 8 for 1 h; BxPC3 as negative cells
Procedure: CAIX-positive SK-RC-52 and CAIX-negative BxPC3 cells were seeded on to 8-well chamber glass slides (Lab-Tek®IICC^2™, Nunc, Rochester NY) and incubated in RPMI 1640 media supplemented with 10% FBS and 1 × penicillin-streptomycin in a 37°C humidified incubator for 48 h. Cells were stained with 100 nM of FITC-labeled 8 for 1 h in the same growth media followed by washing twice with the same media. Cells were fixed with 10% formaldehyde (Sigma-Aldrich, Saint Louis, MO) and washed three times with PBS. Cells were treated with 20 nM DAPI (4′,6-diamidino-2-phenylindole) in PBS. The chambers were removed and the Vectashield mounting solution (Vector Laboratories, Inc., Burlingame, CA) was added to the sample. Fluorescence microscopic images were taken using the Nikon Eclipse 80i epifluorescence microscope (Nikon Instruments Inc., Melville, NY) and the images were processed by the Element software (Nikon Instruments Inc.).

[2] = system: CAIX-negative BxPC3 cells; experiment: FACS analysis of cell binding; assay type: cell-based; conditions: 30 min room temperature
Procedure: (§1) CAIX-positive SK-RC-52 and CAIX-negative BxPC3 cells were maintained in RPMI 1640 media supplemented with 10% FBS and 1 × penicillin-streptomycin in a 37°C humidified incubator. Cells were detached from the flask with trypsin and reconstituted in RPMI 1640 media supplemented with 1% FBS at a density of 1 × 10^6 cells per mL. FITC-labeled 8 was added to the cells at the indicated concentration and incubated at room temperature for 30 min. Cells were washed twice with the same media for staining and analyzed using the FACSCalibur (BD Bioscience, San Jose, CA) instrument.

[3] = system: CAIX-expressing SK-RC-52 cells; experiment: FACS analysis of cell binding; assay type: cell-based
Procedure: as §1

CAXII = biological target: T1, CAXII (Homo sapiens, UniProt O43570); experiment: Fluorescence polarization for affinity comparison (saturation binding); conditions: Fig. 4C
T1 construct: purchased R&D Systems
Procedure: (§2) Figure 4 Compound 8 had higher binding affinity to CAIX compared to CAII and CAXII Saturation binding curves for CAII, CAIX, and CAXII were generated. 5 nM of compound 8 was titrated by increasing concentrations of CAII, CAIX, and CAXII and the resultant fluorescence polarization (mP) was measured, with EC50 values calculated. […] The target in front of each value (CAII, CAIX, CAXII) is taken from the x-axis title of that panel.
(§3) Human recombinant CAII, CAIX, and CAXII were purchased from R&D systems (Minneapolis, MN). 5 nM of FITC-labeled 8 were mixed with serially diluted (from 1 μM to 19 fM) isoforms of the carbonic anhydrases in PBS within 384 well Small Volume™ LoBase Microplates (Greiner Bio-One, Frickenhausen Germany). The mixtures were incubated at room temperature for 1 h. Fluorescence polarization was measured using a Safire2™ plate reader (Tecan, Morrisville, NC), with 475 nm excitation and 530 nm emission wavelengths.

CAII = biological target: T2, CAII (Homo sapiens, UniProt P00918); experiment: as above; conditions: Fig. 4A
T2 construct: purchased R&D Systems
Procedure: as §2, §3

T1 sequence (O43570 25-354): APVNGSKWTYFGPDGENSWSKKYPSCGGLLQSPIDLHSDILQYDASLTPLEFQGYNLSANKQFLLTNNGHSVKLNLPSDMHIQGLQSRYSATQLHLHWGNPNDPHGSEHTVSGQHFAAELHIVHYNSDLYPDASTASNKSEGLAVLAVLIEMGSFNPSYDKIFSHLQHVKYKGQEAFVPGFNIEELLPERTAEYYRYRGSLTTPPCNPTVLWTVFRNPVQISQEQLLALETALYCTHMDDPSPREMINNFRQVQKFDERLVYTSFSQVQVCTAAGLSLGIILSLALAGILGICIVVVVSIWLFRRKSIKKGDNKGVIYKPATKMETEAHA

CC(CCC(=O)N[C@@H](CC(=O)N[C@@H](CC(=O)N[C@@H](CCCCn1cc(CCCC(=O)Nc2nnc(S(N)(=O)=O)s2)nn1)C(=O)NCCOCCOCCNC(=S)Nc1ccc(-c2c3ccc(=O)cc-3oc3cc(O)ccc23)c(C(=O)O)c1)C(=O)O)C(=O)O)(c1ccc(O)cc1)c1ccc(O)cc1 [Compound 8]
Kd (CAIX): 0.2 nM
cell surface staining by fluorescence microscopy (in words) [1]: Only SK-RC-52 cells were stained with 8 on the surface of the cells; also recorded: bound to the cell surface of SK-RC-52
binding to cells by FACS (in words) [2]: not to CAIX-negative BxPC3 cells
lowest concentration with significant binding to cells (FACS) [3]: 10 nM
binding to cells by FACS (in words) ([3]; 30 min room temperature): bound specifically
affinity to CAXII relative to CAIX (in words) (CAXII): about three-fold lower affinity
binding affinity to cytosolic CAII (in words) (CAII): poor binding affinity

Reference: publication PMC4741798, “Imaging of carbonic anhydrase IX with an ^111In-labeled dual-motif inhibitor” (Oncotarget, 2015)
